According to PMC11882969 (Nature Communications, 2025):
Several values for one entry are separate records, joined by “and”; a condition that tells them apart may be missing. Equal entries are not always repeated.

Target: hCB2 (Homo sapiens, UniProt P34972)
Experiment: bioSensAll ebBRET signaling profiling, hCB2
Format: cell-based
Parameters: host or cells: HEK293SL cells, transient PEI transfection
Settings: for RE, relative efficacy: vs CP-55,940; for G13 hCB2 / G15 hCB2 / Gq hCB2 / Gs hCB2: raw signal
[1] = Log [Compound] (M) not printed (line after -13)

hCB2, sequence (P34972 whole entry): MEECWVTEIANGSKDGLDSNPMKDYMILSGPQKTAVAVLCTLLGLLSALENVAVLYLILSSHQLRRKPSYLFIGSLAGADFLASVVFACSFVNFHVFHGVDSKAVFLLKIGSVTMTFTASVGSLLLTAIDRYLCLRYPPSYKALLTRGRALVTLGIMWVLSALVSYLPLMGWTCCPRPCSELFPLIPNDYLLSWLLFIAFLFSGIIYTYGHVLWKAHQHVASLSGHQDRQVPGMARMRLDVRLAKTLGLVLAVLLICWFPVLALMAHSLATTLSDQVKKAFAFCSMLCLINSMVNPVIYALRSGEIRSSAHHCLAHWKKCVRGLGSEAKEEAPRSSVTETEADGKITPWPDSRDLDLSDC

SMILES: COC(=O)C(C)(NC(=O)c1cc(C)n(-c2cccc(C(F)(F)F)c2)n1)c1cccs1 (stereo not drawn) [‘4042]
- Barr2+GRK2 hCB2 (Log [Compound] (M) -4.22186): 36.6847 and 35.0372
- Gi1 hCB2 (Log [Compound] (M) -4.22186): 75.671 and 56.3726
- Gi2 hCB2 (Log [Compound] (M) -4.22186): 69.4439
- GoB hCB2 (Log [Compound] (M) -4.22186): 52.0294 and 57.6529
- Gz hCB2 (Log [Compound] (M) -4.22186): 65.903
- Barr2+GRK2 hCB2 (Log [Compound] (M) -4.63927): 30.1112 and 31.9388
- Gi1 hCB2 (Log [Compound] (M) -4.63927): 84.2769 and 74.9725
- Gi2 hCB2 (Log [Compound] (M) -4.63927): 71.4813
- GoB hCB2 (Log [Compound] (M) -4.63927): 57.2898 and 66.4321
- Gz hCB2 (Log [Compound] (M) -4.63927): 53.7774
- Barr2+GRK2 hCB2 (Log [Compound] (M) -5.05788): 34.1076 and 21.894
- Gi1 hCB2 (Log [Compound] (M) -5.05788): 83.7031 and 72.7366
- Gi2 hCB2 (Log [Compound] (M) -5.05788): 65.5506
- GoB hCB2 (Log [Compound] (M) -5.05788): 61.864 and 59.6527
- Gz hCB2 (Log [Compound] (M) -5.05788): 52.6347
- Barr2+GRK2 hCB2 (Log [Compound] (M) -5.47381): 32.3148 and 21.944
- Gi1 hCB2 (Log [Compound] (M) -5.47381): 87.9518 and 88.1124
- Gi2 hCB2 (Log [Compound] (M) -5.47381): 70.9363
- GoB hCB2 (Log [Compound] (M) -5.47381): 59.0585 and 62.0173
- Gz hCB2 (Log [Compound] (M) -5.47381): 46.8061
- Barr2+GRK2 hCB2 (Log [Compound] (M) -5.89285): 35.0413 and 26.4416
- Gi1 hCB2 (Log [Compound] (M) -5.89285): 81.7804 and 90.251
- Gi2 hCB2 (Log [Compound] (M) -5.89285): 70.7805
- GoB hCB2 (Log [Compound] (M) -5.89285): 65.2185 and 62.9481
- Gz hCB2 (Log [Compound] (M) -5.89285): 53.1772
- Barr2+GRK2 hCB2 (Log [Compound] (M) -6.31878): 26.1148 and 22.8935
- Gi1 hCB2 (Log [Compound] (M) -6.31878): 87.5021 and 87.0754
- Gi2 hCB2 (Log [Compound] (M) -6.31878): 73.3371
- GoB hCB2 (Log [Compound] (M) -6.31878): 60.7357 and 59.0239
- Gz hCB2 (Log [Compound] (M) -6.31878): 50.6781
- Barr2+GRK2 hCB2 (Log [Compound] (M) -6.72585): 32.0907 and 32.9383
- Gi1 hCB2 (Log [Compound] (M) -6.72585): 83.1759 and 83.592
- Gi2 hCB2 (Log [Compound] (M) -6.72585): 72.2081
- GoB hCB2 (Log [Compound] (M) -6.72585): 57.8234 and 61.5268
- Gz hCB2 (Log [Compound] (M) -6.72585): 54.4186
- Barr2+GRK2 hCB2 (Log [Compound] (M) -7.14267): 30.5594 and 25.1923
- Gi1 hCB2 (Log [Compound] (M) -7.14267): 86.1686 and 79.3795
- Gi2 hCB2 (Log [Compound] (M) -7.14267): 59.0489
- GoB hCB2 (Log [Compound] (M) -7.14267): 60.3698 and 62.0676
- Gz hCB2 (Log [Compound] (M) -7.14267): 81.8754 and 46.0416
- Barr2+GRK2 hCB2 (Log [Compound] (M) -7.55284): 24.7329 and 21.1444
- Gi1 hCB2 (Log [Compound] (M) -7.55284): 76.7565 and 80.3516
- Gi2 hCB2 (Log [Compound] (M) -7.55284): 59.4123
- GoB hCB2 (Log [Compound] (M) -7.55284): 49.2391 and 57.2756
- Gz hCB2 (Log [Compound] (M) -7.55284): 76.5196 and 38.421
- Barr2+GRK2 hCB2 (Log [Compound] (M) -8): 20.8112 and 19.8451
- Gi1 hCB2 (Log [Compound] (M) -8): 58.7695 and 64.9921
- Gi2 hCB2 (Log [Compound] (M) -8): 62.9552
- GoB hCB2 (Log [Compound] (M) -8): 43.3382 and 49.9051
- Barr2+GRK2 hCB2 (Log [Compound] (M) -8.22186): 15.2835 and 10.4
- Gi1 hCB2 (Log [Compound] (M) -8.22186): 52.319 and 51.5606
- Gi2 hCB2 (Log [Compound] (M) -8.22186): 51.7297
- GoB hCB2 (Log [Compound] (M) -8.22186): 36.4463 and 41.3775
- Gz hCB2 (Log [Compound] (M) -8.22186): 67.5634 and 41.7257
- Barr2+GRK2 hCB2 (Log [Compound] (M) -8.39794): 10.0546 and 6.052
- Gi1 hCB2 (Log [Compound] (M) -8.39794): 41.3253 and 50.1024
- Gi2 hCB2 (Log [Compound] (M) -8.39794): 43.6058
- GoB hCB2 (Log [Compound] (M) -8.39794): 31.1707 and 34.2586
- Barr2+GRK2 hCB2 (Log [Compound] (M) -8.68787): 5.6847 and 8.001
- Gi1 hCB2 (Log [Compound] (M) -8.68787): 42.5968 and 33.949
- Gi2 hCB2 (Log [Compound] (M) -8.68787): 35.8583
- Gi2 hCB2 (Log [Compound] (M) -9.15521): 25.8008
- Gi2 hCB2 (Log [Compound] (M) -9.61989): -4.618
- Gi2 hCB2 (Log [Compound] (M) -10.0969): -5.163
- Gi2 hCB2 (Log [Compound] (M) -10.5529): -5.566
- Gi2 hCB2 (Log [Compound] (M) -11.0177): -11.8727
- Gi2 hCB2 (Log [Compound] (M) -11.4949): -13.975
- Gi2 hCB2 (Log [Compound] (M) -11.9208): -11.7429
- Gi2 hCB2 (Log [Compound] (M) -12.3979): -12.3529
- Gi2 hCB2 (Log [Compound] (M) -12.8861): -13.7415
- Gi2 hCB2 (Log [Compound] (M) -13): -11.7689
- Barr2+GRK2 hCB2 [1]: 1.105
- Gi1 hCB2 [1]: -2.635
- GoB hCB2 [1]: -0.7449
- Gz hCB2 [1]: 1.526
- pEC50 [95% CI] (hCB2 Barr2 + GRK2): 8.26 [8.1 – 8.5]
- pEC50 [95% CI] (hCB2 Gi1): 8.58 [8.5 – 8.7]
- RE, relative efficacy (hCB2 Gi1): 0.63
- pEC50 [95% CI] (hCB2 Gi2): 8.90 [8.8 – 9.0]
- RE, relative efficacy (hCB2 Gi2): 0.59
- pEC50 [95% CI] (hCB2 GoB): 8.60 [8.5 – 8.7]
- RE, relative efficacy (hCB2 GoB): 0.47
- pEC50 [95% CI] (hCB2 Gz): 8.87 [8.5 – 9.3]
- RE, relative efficacy (hCB2 Gz): 0.38
- RE, relative efficacy (hCB2 ßarr2+GRK2): 0.82
- G13 hCB2 (Log [Compound] (M) -4.22186): 669
- G15 hCB2 (Log [Compound] (M) -4.22186): 923
- Gq hCB2 (Log [Compound] (M) -4.22186): 1840
- Gs hCB2 (Log [Compound] (M) -4.22186): 9076
- G13 hCB2 (Log [Compound] (M) -4.63927): 511
- G15 hCB2 (Log [Compound] (M) -4.63927): 896
- Gq hCB2 (Log [Compound] (M) -4.63927): 1838
- Gs hCB2 (Log [Compound] (M) -4.63927): 9146
